Assay results as given in patent US9179694B2, “Method and composition for enhancing milk production and milk component concentrations” (PURINA ANIMAL NUTRITION LLC, priority 2003, dated 2015).
Marks after values point to notes of the source that are not given here.

Assay: Lactose content of produced milk in sorbitol feeding trials
Format: in vivo, Holstein cows
Conditions: for Lactose in Produced Milk: Pre-Partum Trial #1 (75/0/0 g/day in wk −3..−1/+1..+4/+5..+8)
Procedure: To determine the weight percent lactose, wet basis, in a liquid sample, the weight of the liquid sample is first determined. The actual weight of lactose in the liquid sample may then be determined using analysis kit number 176-303, that is available from Boehringer-Mannheim of Indianapolis, Ind. in accordance with the procedural instructions included with analysis kit number 176-303. The weight percent lactose, wet basis, in the liquid sample is then calculated by dividing the actual weight of lactose in the liquid sample by the actual weight of the liquid sample. Each cow of each of the six different trials (Control Trial #1, Control Trial #2, Pre-Partum Trial #1, Pre-Partum Trial #2, Pre/Post Trial #1, and Pre/Post Trial #2) was milked three times daily and the weight of produced milk by each cow was recorded at each milking. The milk from each cow was sampled once per week (⅓ of the sample volume from each of the three milkings occurring on the weekly milk sampling day) and was analyzed for true protein, total fat, lactose, and total solids, as detailed in the property determination and characterization techniques presented above. Additionally, samples of blood were periodically obtained from each cow during the four trials (Control Trial 2, Pre-Partum Trial #2, Pre/Post Trial #1, and Pre/Post Trial #2) encompassed in Example Two and were analyzed for non-esterified fatty acid (NEFA) content as detailed in the property determination and characterization techniques presented above. No NEFA analysis was conducted on the cows employed in Control Trial #1 or Pre-Partum Trial #1 that are the subject of Example One. Example One includes Control Trial #1 and Pre-Partum Trial #1. Both primiparious cows and multiparious cows were included in Control Trial #1 and Pre-Partum Trial #1. Five primiparious cows and fifteen multiparious cows were included in Control Trial #1; likewise, five primiparious cows and fifteen multiparious cows were included in Pre-Partum Trial #1. All cows included in Control Trial #1 and Pre-Partum Trial #1 were Holsteins. Example Two includes Control Trial #2, Pre-Partum Trial #2, Pre/Post Trial #1, and Pre/Post Trial #2. Only multiparious, Holstein cows were included in Control Trial #2, Pre-Partum Trial #1, Pre/Post Trial #1, and Pre/Post Trial #2. Eighteen multiparious cows were included in both Control Trial #2 and Pre-Partum Trial #2, while sixteen multiparious cows were included in Pre/Post Trial #1 and seventeen multiparious cows were included in Pre/Post Trial #2.

OC[C@@H](O)[C@@H](O)[C@H](O)[C@@H](O)CO [sorbitol]
Lactose in Produced Milk (multiparious cows, weeks +1 through +8): 4.77 wt %
Lactose in Produced Milk (primiparious cows, weeks +1 through +8): 4.98 wt %
increase in lactose concentration in the produced milk (Pre-Partum Trial #1 (75 g/day wk −3..−1 only) versus Control Trial #1, primiparious cows, weeks +1 through +8): 5.1%
Lactose Content of Produced Milk (Pre-Partum Trial #2 (75/0/100 g/day in wk −3..−1/+1..+4/+5..+8), multiparious cows, week +1): 4.42 weight %
Lactose Content of Produced Milk (Pre-Partum Trial #2 (75/0/100 g/day in wk −3..−1/+1..+4/+5..+8), multiparious cows, week +2): 4.69^a weight %
Lactose Content of Produced Milk (Pre-Partum Trial #2 (75/0/100 g/day in wk −3..−1/+1..+4/+5..+8), multiparious cows, week +3): 4.74^a weight %
Lactose Content of Produced Milk (Pre-Partum Trial #2 (75/0/100 g/day in wk −3..−1/+1..+4/+5..+8), multiparious cows, week +4): 4.75^a weight %
Lactose Content of Produced Milk (Pre-Partum Trial #2 (75/0/100 g/day in wk −3..−1/+1..+4/+5..+8), multiparious cows, week +5): 4.74^a weight %
Lactose Content of Produced Milk (Pre-Partum Trial #2 (75/0/100 g/day in wk −3..−1/+1..+4/+5..+8), multiparious cows, week +6): 4.75^a weight %
Lactose Content of Produced Milk (Pre-Partum Trial #2 (75/0/100 g/day in wk −3..−1/+1..+4/+5..+8), multiparious cows, week +7): 4.77^a weight %
Lactose Content of Produced Milk (Pre-Partum Trial #2 (75/0/100 g/day in wk −3..−1/+1..+4/+5..+8), multiparious cows, week +8): 4.76^a weight %
Lactose Content of Produced Milk (Pre-Partum Trial #2 (75/0/100 g/day in wk −3..−1/+1..+4/+5..+8), multiparious cows, weeks +1 through +4): 4.65 weight %
Lactose Content of Produced Milk (Pre-Partum Trial #2 (75/0/100 g/day in wk −3..−1/+1..+4/+5..+8), multiparious cows, weeks +5 through +8): 4.76^a weight %
Lactose Content of Produced Milk (Pre/Post Trial #1 (150/125/100 g/day in wk −3..−1/+1..+4/+5..+8), multiparious cows, week +1): 4.55 weight %
Lactose Content of Produced Milk (Pre/Post Trial #1 (150/125/100 g/day in wk −3..−1/+1..+4/+5..+8), multiparious cows, week +1, two-trial comparison with Control Trial #2 (Table 25)): 4.55 weight %
Lactose Content of Produced Milk (Pre/Post Trial #1 (150/125/100 g/day in wk −3..−1/+1..+4/+5..+8), multiparious cows, week +2): 4.79^ab weight %
Lactose Content of Produced Milk (Pre/Post Trial #1 (150/125/100 g/day in wk −3..−1/+1..+4/+5..+8), multiparious cows, week +2, two-trial comparison with Control Trial #2 (Table 25)): 4.79 weight %
Lactose Content of Produced Milk (Pre/Post Trial #1 (150/125/100 g/day in wk −3..−1/+1..+4/+5..+8), multiparious cows, week +3): 4.87^ab weight %
Lactose Content of Produced Milk (Pre/Post Trial #1 (150/125/100 g/day in wk −3..−1/+1..+4/+5..+8), multiparious cows, week +3, two-trial comparison with Control Trial #2 (Table 25)): 4.87 weight %
Lactose Content of Produced Milk (Pre/Post Trial #1 (150/125/100 g/day in wk −3..−1/+1..+4/+5..+8), multiparious cows, week +4): 4.90^b weight %
Lactose Content of Produced Milk (Pre/Post Trial #1 (150/125/100 g/day in wk −3..−1/+1..+4/+5..+8), multiparious cows, week +4, two-trial comparison with Control Trial #2 (Table 25)): 4.90 weight %
Lactose Content of Produced Milk (Pre/Post Trial #1 (150/125/100 g/day in wk −3..−1/+1..+4/+5..+8), multiparious cows, week +5): 4.93^c weight %
Lactose Content of Produced Milk (Pre/Post Trial #1 (150/125/100 g/day in wk −3..−1/+1..+4/+5..+8), multiparious cows, week +5, two-trial comparison with Control Trial #2 (Table 25)): 4.93 weight %
Lactose Content of Produced Milk (Pre/Post Trial #1 (150/125/100 g/day in wk −3..−1/+1..+4/+5..+8), multiparious cows, week +6): 4.90^ab weight %
Lactose Content of Produced Milk (Pre/Post Trial #1 (150/125/100 g/day in wk −3..−1/+1..+4/+5..+8), multiparious cows, week +6, two-trial comparison with Control Trial #2 (Table 25)): 4.90 weight %
Lactose Content of Produced Milk (Pre/Post Trial #1 (150/125/100 g/day in wk −3..−1/+1..+4/+5..+8), multiparious cows, week +7): 4.90^ab weight %
Lactose Content of Produced Milk (Pre/Post Trial #1 (150/125/100 g/day in wk −3..−1/+1..+4/+5..+8), multiparious cows, week +7, two-trial comparison with Control Trial #2 (Table 25)): 4.90 weight %
Lactose Content of Produced Milk (Pre/Post Trial #1 (150/125/100 g/day in wk −3..−1/+1..+4/+5..+8), multiparious cows, week +8): 4.84^ab weight %
Lactose Content of Produced Milk (Pre/Post Trial #1 (150/125/100 g/day in wk −3..−1/+1..+4/+5..+8), multiparious cows, week +8, two-trial comparison with Control Trial #2 (Table 25)): 4.84 weight %
Lactose Content of Produced Milk (Pre/Post Trial #1 (150/125/100 g/day in wk −3..−1/+1..+4/+5..+8), multiparious cows, weeks +1 through +4): 4.78 weight %
Lactose Content of Produced Milk (Pre/Post Trial #1 (150/125/100 g/day in wk −3..−1/+1..+4/+5..+8), multiparious cows, weeks +1 through +4, two-trial comparison with Control Trial #2 (Table 25)): 4.78 weight %
Lactose Content of Produced Milk (Pre/Post Trial #1 (150/125/100 g/day in wk −3..−1/+1..+4/+5..+8), multiparious cows, weeks +1 through +8): 4.83^ab weight %
Lactose Content of Produced Milk (Pre/Post Trial #1 (150/125/100 g/day in wk −3..−1/+1..+4/+5..+8), multiparious cows, weeks +1 through +8, two-trial comparison with Control Trial #2 (Table 25)): 4.83 weight %
Lactose Content of Produced Milk (Pre/Post Trial #1 (150/125/100 g/day in wk −3..−1/+1..+4/+5..+8), multiparious cows, weeks +5 through +8): 4.89^ab weight %
Lactose Content of Produced Milk (Pre/Post Trial #1 (150/125/100 g/day in wk −3..−1/+1..+4/+5..+8), multiparious cows, weeks +5 through +8, two-trial comparison with Control Trial #2 (Table 25)): 4.89 weight %
increase in lactose concentration in milk (Pre/Post Trial #1 (150/125/100 g/day) versus Control Trial #2, multiparious cows, weeks +1 through +4 (Table 25)): more than 2.5%
increase in lactose concentration in milk (Pre/Post Trial #1 (150/125/100 g/day) versus Control Trial #2, multiparious cows, weeks +1 through +8 (Table 25)): 1.9%
increase in lactose concentration in milk (Pre/Post Trial #1 (150/125/100 g/day) versus Control Trial #2, multiparious cows, weeks +5 through +8 (Table 25)): more than 2.5%
Lactose Content of Produced Milk (Pre/Post Trial #2 (75/75/100 g/day in wk −3..−1/+1..+4/+5..+8), multiparious cows, week +1): 4.47 weight %
Lactose Content of Produced Milk (Pre/Post Trial #2 (75/75/100 g/day in wk −3..−1/+1..+4/+5..+8), multiparious cows, week +2): 4.84^b weight %
Lactose Content of Produced Milk (Pre/Post Trial #2 (75/75/100 g/day in wk −3..−1/+1..+4/+5..+8), multiparious cows, week +3): 4.92^b weight %
Lactose Content of Produced Milk (Pre/Post Trial #2 (75/75/100 g/day in wk −3..−1/+1..+4/+5..+8), multiparious cows, week +4): 4.90^b weight %
Lactose Content of Produced Milk (Pre/Post Trial #2 (75/75/100 g/day in wk −3..−1/+1..+4/+5..+8), multiparious cows, week +5): 4.90^bc weight %
Lactose Content of Produced Milk (Pre/Post Trial #2 (75/75/100 g/day in wk −3..−1/+1..+4/+5..+8), multiparious cows, week +6): 4.92^b weight %
Lactose Content of Produced Milk (Pre/Post Trial #2 (75/75/100 g/day in wk −3..−1/+1..+4/+5..+8), multiparious cows, week +7): 4.96^b weight %
Lactose Content of Produced Milk (Pre/Post Trial #2 (75/75/100 g/day in wk −3..−1/+1..+4/+5..+8), multiparious cows, week +8): 4.93^b weight %
Lactose Content of Produced Milk (Pre/Post Trial #2 (75/75/100 g/day in wk −3..−1/+1..+4/+5..+8), multiparious cows, weeks +1 through +4): 4.78 weight %
Lactose Content of Produced Milk (Pre/Post Trial #2 (75/75/100 g/day in wk −3..−1/+1..+4/+5..+8), multiparious cows, weeks +1 through +8): 4.85^b weight %
greater lactose concentration in milk (Pre/Post Trial #2 (75/75/100 g/day) versus Pre-Partum Trial #2 (75/0/100 g/day), multiparious cows, weeks +1 through +8): 3.0%
increase in lactose concentration in milk (average of means of Pre-Partum Trial #2, Pre/Post Trial #1 and Pre/Post Trial #2 versus Control Trial #2, multiparious cows, weeks +1 through +4): 1.7%
increase in lactose concentration in milk (average of means of Pre-Partum Trial #2, Pre/Post Trial #1 and Pre/Post Trial #2 versus Control Trial #2, multiparious cows, weeks +1 through +8): 1.6%
